Where two headings read alike, the source gives them in different places.
Assays:
SK-BR-3 tumor cells = experiment: Inhibition of in vitro proliferation of SK-BR-3 tumor cells (CTG); format: cell-based; conditions: Homo sapiens, SK-BR-3, 144 h, read-out: IC50 (nM) SK-BR-3
Description: (§1) This experiment was intended to test the inhibitory activity of the pharmaceutical compounds of the present disclosure against the in vitro proliferation of U87MG cells (glioma cells, Cell Bank, Chinese Academy of Sciences, Catalog #TCHu138) and SK-BR-3 tumor cells (human breast cancer cells, ATCC, Catalog #HTB-30). The cells were treated in vitro with a compound at different concentrations. After 6 days of culture, the proliferation of cells was tested using CTG (CellTiter-Glo® Luminescent Cell Viability Assay, Promega, Catalog #G7573) reagents, and the in vitro activity of the compound was evaluated according to the IC50 value.
(§2) The method of testing the inhibition of the in vitro proliferation of U87MG cells was described below as an example for the method of assaying for the inhibitory activity of the compounds of the present disclosure against the in vitro proliferation of tumor cells. The method is also applicable to, but not limited to, tests for inhibitory activity against the in vitro proliferation of other tumor cells.
(§3) 1. Cell culture: U87MG and SK-BR-3 cells were cultured in EMEM medium (GE, Catalog #SH30024.01) containing 10% FBS and McCoy's 5A medium (Gibco, Catalog #16600-108) containing 10% FBS, respectively.
(§4) 2. Preparation of cells. U87MG and SK-BR-3 cells growing at log phase were washed once with PBS (phosphate buffer, Shanghai BasalMedia Technologies Co., Ltd.) and then digested with 2-3 mL of trypsin (0.25% Trypsin-EDTA (1×), Gibico, Life Technologies) for 2-3 min. After the cells were completely digested, 10-15 mL of cell culture media were added to elute the digested cells. The mixtures were centrifuged at 1000 rpm for 5 min, and the supernatants were discarded. Then the cells were resuspended in 10-20 mL of cell culture media to give single-cell suspensions.
3. Cell plating. […]
(§5) 7. Plate reading. The 96-well cell culture plate was taken out and tested in a microplate reader (BMG labtech, PHERAstar FS) for chemiluminescence.
(§6) Data were processed and analyzed using Microsoft Excel and Graphpad Prism 5.

U87MG cells = experiment: Inhibition of in vitro proliferation of U87MG cells (CTG); format: cell-based; conditions: Homo sapiens, U-87 MG, 144 h, read-out: IC50 (nM) U87
Description: as §1, §2, §3, §4
3. Cell plating. The U87MG and SK-BR-3 single-cell suspensions were each well mixed and adjusted with cell culture media to cell densities of 2.75×10^3 cells/mL and 8.25×10^3 cells/mL, respectively. The adjusted cell suspensions were each well mixed and added to 96-well cell culture plates at 180 μL/well. To each of the peripheral wells of the 96-well plates was added 200 μL of media only. The plate was incubated in an incubator for 24 h (37° C., 5% CO2).
4. Preparation of compounds. A compound was dissolved in DMSO (dimethyl sulfoxide, Shanghai Titan Scientific Co., Ltd.) to prepare a stock solution at an initial concentration of 10 mM.
Small molecule compounds were prepared at an initial concentration of 500 nM as follows.
Different test samples at concentration 100 μM (30 μL) were added to the first column of a 96-well U-bottom plate, and 20 μL of DMSO was added to each well of the second column through the eleventh column. The samples in the first column (10 μL) were added to the 20 μL of DMSO in the second column, and the mixtures were well mixed. The mixtures (10 μL) were added to the third column, and so on to the tenth column. The drugs in the plate (5 μL per well) were transferred to EMEM media (95 μL), and the mixtures were well mixed for later use.
5. Sample addition. The test samples prepared at different concentrations (20 μL) were added to a culture plate, with two duplicate wells set for each sample. […]
as §5, §6

[1] = in vitro proliferation, 6 days, CTG

`CC[C@@]1(O)C(=O)OCc2c1cc1n(c2=O)Cc2c-1nc1cc(F)c(C)c3c1c2[C@@H](NC(=O)[C@H](O)C1CC1)CC3` [(R)-2-cyclopropyl-N-((1S,9S)-9-ethyl-5-fluoro-9-hydroxy-4-methyl-10,13-dioxo-2,3,9,10,13,15-hexahydro-1H,12H-benzo[de]pyrano[3′,4′:6,7]indolizino[1,2-b]quinolin-1-yl)-2-hydroxyacetamide] showed an IC50 (SK-BR-3 tumor cells; [1]) of 0.33 nM and an IC50 (U87MG cells; [1]) of 0.86 nM.
Compound `CC[C@@]1(O)C(=O)OCc2c1cc1n(c2=O)Cc2c-1nc1cc(F)c(C)c3c1c2[C@@H](NC(=O)C1(O)CC1)CC3` [Example 1, N-((1S,9S)-9-ethyl-5-fluoro-9-hydroxy-4-methyl-10,13-dioxo-2,3,9,10,13,15-hexahydro-1H,12H-benzo[de]pyrano[3′,4′:6,7]indolizino[1,2-b]quinolin-1-yl)-1-hydroxycyclopropane-1-carboxamide] has an IC50 (SK-BR-3 tumor cells) of 0.12 nM and an IC50 (U87MG cells) of 0.23 nM.
Work on `CC[C@@]1(O)C(=O)OCc2c1cc1n(c2=O)Cc2c-1nc1cc(F)c(C)c3c1c2[C@@H](NC(=O)C1(O)CCCC1)CC3` [Example 4, N-((1S,9S)-9-ethyl-5-fluoro-9-hydroxy-4-methyl-10,13-dioxo-2,3,9,10,13,15-hexahydro-1H,12H-benzo[de]pyrano[3′,4′:6,7]indolizino[1,2-b]quinolin-1-yl)-1-hydroxycyclopentane-1-carboxamide] yielded an IC50 (SK-BR-3 tumor cells) of 1.9 nM.
With `CC[C@@]1(O)C(=O)OCc2c1cc1n(c2=O)Cc2c-1nc1cc(F)c(C)c3c1c2[C@@H](NC(=O)C1(CO)CC1)CC3` [Example 5, N-((1S,9S)-9-ethyl-5-fluoro-9-hydroxy-4-methyl-10,13-dioxo-2,3,9,10,13,15-hexahydro-1H,12H-benzo[de]pyrano[3′,4′:6,7]indolizino[1,2-b]quinolin-1-yl)-1-(hydroxymethyl)cyclopropane-1-carboxamide] the IC50 (U87MG cells) was 4.81 nM.
With `CC[C@@]1(O)C(=O)OCc2c1cc1n(c2=O)Cc2c-1nc1cc(F)c(C)c3c1c2[C@@H](NC(=O)C1(CO)CCC1)CC3` [Example 6, N-((1S,9S)-9-ethyl-5-fluoro-9-hydroxy-4-methyl-10,13-dioxo-2,3,9,10,13,15-hexahydro-1H,12H-benzo[de]pyrano[3′,4′:6,7]indolizino[1,2-b]quinolin-1-yl)-1-(hydroxymethyl)cyclobutane-1-carboxamide] the IC50 (U87MG cells; [1]) was 1.83 nM.
In the case of `CC[C@@]1(O)C(=O)OCc2c1cc1n(c2=O)Cc2c-1nc1cc(F)c(C)c3c1c2[C@@H](NC(=O)C1(O)CCC1)CC3` [Example 7, N-((1S,9S)-9-ethyl-5-fluoro-9-hydroxy-4-methyl-10,13-dioxo-2,3,9,10,13,15-hexahydro-1H,12H-benzo[de]pyrano[3′,4′:6,7]indolizino[1,2-b]quinolin-1-yl)-1-hydroxycyclobutane-1-carboxamide], the IC50 (U87MG cells; [1]) is reported as 1.95 nM.

Reference: US20230054458A1, “ANTI-CLAUDIN ANTIBODY-DRUG CONJUGATE AND PHARMACEUTICAL USE THEREOF” (JIANGSU HENGRUI MEDICINE CO., LTD., priority 2019, published 2023)
